According to US10828241B2, “Skin lightening compositions and methods” (SYTHEON LIMITED, priority 2018, dated 2020):

Tested on: skin pigmentation
Assay: Clinical study: facial pigment intensity from digital photography
Type: in vivo, human
Details: lotion with 1.00% acetyl zingerone (Formulation 1A) applied to full face twice daily, group of 17

Structure (SMILES): COc1cc(CC(C(C)=O)C(C)=O)ccc1O [Compd. 1, Acetyl Zingerone]
- Pigment Intensity (% Change), Average (4 weeks): −25.580%
- Pigment Intensity (% Change), Average (8 weeks): −25.601%
